Experimental data reported in ChEMBL document CHEMBL1127448, “Synthesis, ligand binding, and QSAR (CoMFA and classical) study of 3 beta-(3'-substituted phenyl)-, 3 beta-(4'-substituted phenyl)-, and 3 beta-(3',4'-disubstituted phenyl)tropane-2 beta-carboxylic acid methyl esters” (J Med Chem, 1994).

target: Sodium-dependent dopamine transporter (Rattus norvegicus, UniProt P23977); assay: Concentration required to inhibit 50% of radioligand binding ([3H]WIN-35428) to the dopamine (DA) transporter in rat
Sequence (P23977 whole entry): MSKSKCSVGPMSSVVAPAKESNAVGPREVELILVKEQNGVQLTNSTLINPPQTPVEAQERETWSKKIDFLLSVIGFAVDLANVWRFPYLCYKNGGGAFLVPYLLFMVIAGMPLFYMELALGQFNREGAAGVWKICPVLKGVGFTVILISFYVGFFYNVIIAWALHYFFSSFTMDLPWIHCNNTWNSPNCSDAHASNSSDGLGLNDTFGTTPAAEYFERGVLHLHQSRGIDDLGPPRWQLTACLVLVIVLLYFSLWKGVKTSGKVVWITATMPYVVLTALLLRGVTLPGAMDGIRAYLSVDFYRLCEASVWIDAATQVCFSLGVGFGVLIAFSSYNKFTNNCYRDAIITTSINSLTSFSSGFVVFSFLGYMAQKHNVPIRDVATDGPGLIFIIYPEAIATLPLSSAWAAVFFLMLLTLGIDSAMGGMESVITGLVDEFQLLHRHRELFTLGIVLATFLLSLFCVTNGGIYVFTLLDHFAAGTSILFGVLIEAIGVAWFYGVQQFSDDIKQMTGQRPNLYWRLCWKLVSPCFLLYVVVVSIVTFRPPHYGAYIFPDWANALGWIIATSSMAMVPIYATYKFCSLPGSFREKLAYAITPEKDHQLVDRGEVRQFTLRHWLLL

Row | Compound | IC50 [nM]
1 | CCC(=O)Nc1ccc([C@H]2C[C@H]3CCC([C@H]2C(=O)OC)N3C)cc1 | 121
2 | COC(=O)C1C2CC[C@H](C[C@@H]1c1cccc(F)c1)N2C (some centres not stated) | 16.4
3 | COC(=O)C1C2CC[C@H](C[C@H]1c1ccc(Cl)c(Cl)c1)N2C (some centres not stated) | 0.79
4 | COC(=O)C1C2CC[C@H](C[C@@H]1c1ccc(N)c(Br)c1)N2C (some centres not stated) | 3.91
5 | COC(=O)[C@@H]1C2CC[C@H](C[C@@H]1c1ccc(N)cc1)N2C | 9.84
6 | COC(=O)C1C2CC[C@H](C[C@@H]1c1cccc(Cl)c1)N2C (some centres not stated) | 6.27
7 | COC(=O)C1C2CC[C@H](C[C@@H]1c1ccc(F)c(C)c1)N2C (stereo in doubt; 2x) | 2.95
8 | COC(=O)C1C2CC[C@H](C[C@H]1c1ccc(Br)cc1)N2C (some centres not stated) | 1.69
9 | COC(=O)C1C2CC[C@H](C[C@@H]1c1ccc(N)c(I)c1)N2C (some centres not stated) | 1.35
10 | COC(=O)C1C2CC[C@@H](C[C@@H]1c1ccc([N+](=O)[O-])cc1)N2C (some centres not stated) | 13.1
11 | COC(=O)C1C2CC[C@H](C[C@@H]1c1cccc(I)c1)N2C (some centres not stated) | 26.1
12 | COC(=O)C1C2CC[C@H](C[C@@H]1c1ccc(O)cc1)N2C (some centres not stated) | 12.1
